Like-named read-outs stand apart in the source and are kept apart here.
What was measured:
[1] = test system: Male Wistar rats with unilateral MCAO (cerebral ischemia); experiment: Rat stroke model (permanent MCA occlusion), infarct volume assessment; format: in vivo; conditions: triflusal 30 mg/kg alone, 3 days after unilateral MCAO; for Infarct volume: three days, mean±SEM
Method: Male Wistar rats (265-360 g) were randomly divided into four treatment groups (n=5-9 for each group). Prior to and following surgery rats were housed in single cages (12/12 h light/dark cycle) and were fed at libitum. Prior to surgery, all rats were anaesthetized with a single dose of sodium pentobarbital (60 mg/kg ip) and placed in a David Kopf stereotaxic apparatus. Rectal temperatures were monitored and maintained constant at 37° C. by a heating pad while the rats were under anesthesia. The right MCA was exposed. […] Removal of a portion of the bone and exposure and ligation of the MCA was done with the aid of an operating stereomicroscope. Immediately following surgery, rats received one of the following treatments: 30 mg/kg triflusal or 30 mg/kg triflusal and 200 mg/kg dipyridamole or 10 mg/kg triflusal and 200 mg/kg dipyridamole or vehicle only for next three days. Three days after surgery, all animals were euthanized via pentobarbital overdose and perfused transaortically first with saline which was immediately followed by a low perfusion for about 1 h with 2% solution of triphenyl-tetrazolium chloride (TTC) that is followed by 4% formaldehyde (pH 7.4). The brains were removed and coronal sections (1 mm) were cut for infarct measurement. Investigator was blind to the sample treatment. Serial brain sections were examined and the areas of infarcted tissue were measured (SigmaScan […].0, SPSS Inc., Chicago Ill., USA). In addition, the hemispheric areas of each tissue section were measured to account for any brain swelling that might have occurred following cerebral ischemia. The volume of the infarct was calculated in mm^3 by integrating the infarct sizes for each of the tissue sections that contained infarcted tissue. The 1 mm sections were photographed using a Nikon digital camera. Results are expressed as mean±SEM of each measure. The volumes of the infarcts for each of the groups were compared by Student's unpaired two-tailed t tests. Significance was set at p≦0.05. Correlations between parameters were tested by linear regression analysis

[2] = test system: rat middle cerebral artery occlusion (MCAO) model of stroke; conditions: cited from earlier work; for reducing infarct size (in words): dose of 30 mg/kg, triflusal versus aspirin
cAMP phosphodiesterase = conditions: compared with aspirin; cited from earlier work

## CC(=O)Oc1cc(C(F)(F)F)ccc1C(=O)O [Triflusal, 2-acetoxy-4-trifluoromethylbenzoic acid]
[1]
  Infarct volume: 73.59 ± 7.0 mm^3
[1]; listed as triflusal
  Infarct volume: 73.59±7.0 mm^3
[1]; vs vehicle
  Infarct reduction: 30.72 ± 6.6%
[2]
  reducing infarct size (in words): equally effective
[2]; triflusal 10 mg/kg/day, not significant neuroprotection
  infarct reduction in the MCAO model: 12.56%
[2]; triflusal 30 mg/kg/day, significant neuroprotection
  infarct reduction in the MCAO model: 43.95%
cAMP phosphodiesterase
  potency as inhibitor of cAMP phosphodiesterase relative to aspirin: five times more potent

## CC(=O)Oc1ccccc1C(=O)O [aspirin]
[2]
  reducing infarct size (in words): equally effective

Source: patent US20100069326A1, “Combination Therapies to Treat Cardio- and Cerebro-Vascular Disorders” (priority 2008, published 2010)
